From ChEMBL document CHEMBL1201862, “PubChem BioAssay data set” (2004)
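96-well plates; 48 h exposure; 5 concentrations. Endpoints by linear interpolation between flanking doses. Not reached: highest tested concentration assigned. GI50: concentration for 50% inhibition of growth.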 Activity calls are given as the source filed them. Cut-off read from the data, not from the text of the source: active = GI50 up to about 1.1 µM and inactive = higher.

Columns and labels:
Assay in all cases: NCI anticancer screen, dose series, 48 h
[1] = test system: SK-OV-3
[2] = test system: HL-60
[3] = test system: MOLT-4
[4] = test system: NCI-H23
[5] = test system: K562
[6] = test system: RPMI-8226
[7] = test system: SK-MEL-28
[8] = test system: A498
[9] = test system: HCT-116
[10] = test system: SF-268
[11] = test system: Malme-3M
[12] = test system: NCI-H226
[13] = test system: A549
[14] = test system: EKVX
[15] = test system: SN12C
[16] = test system: OVCAR-4
[17] = test system: MCF7
[18] = test system: NCI/ADR-RES
[19] = test system: PC-3
[20] = test system: T47D

Measured: GI50

CC(=O)Nc1ccccc1Sc1ccccc1
inactive: [1] > 100 µM | [2] > 100 µM | [3] > 100 µM | [4] > 100 µM | [5] > 100 µM | [6] > 100 µM | [7] > 100 µM | [8] > 100 µM | [9] > 100 µM | [10] 72.9 µM | [11] > 100 µM | [12] > 100 µM | [13] > 100 µM | [14] > 100 µM | [15] > 100 µM | [16] > 100 µM

CC(=N/NC(N)=S)/C(C)=N/NC(N)=S
inactive: [17] > 100 µM | [2] > 100 µM | [3] > 100 µM | [4] > 100 µM | [5] > 100 µM | [6] > 100 µM | [7] > 100 µM | [9] > 100 µM | [10] > 100 µM | [11] > 100 µM | [12] > 100 µM | [13] > 100 µM | [18] > 100 µM | [14] > 100 µM | [19] > 100 µM | [15] > 100 µM

CCCCCCOc1ccc(C(=O)NOC)cc1
inactive: [1] > 100 µM | [17] > 100 µM | [2] 26.9 µM | [3] 24.8 µM | [4] > 100 µM | [5] 40.4 µM | [6] 36 µM | [7] > 100 µM | [8] 99.1 µM | [9] > 100 µM | [10] > 100 µM | [12] > 100 µM | [13] 66.7 µM | [18] > 100 µM | [14] > 100 µM | [19] 60.1 µM | [15] > 100 µM | [16] > 100 µM

COC1(C)CNCC(C)(C)NC(=O)C(C)(OC)CNCC(C)(C)NC1=O (stereo not drawn)
inactive: [1] > 100 µM | [2] > 100 µM | [3] > 100 µM | [4] > 100 µM | [5] > 100 µM | [6] > 100 µM | [7] > 100 µM | [8] > 100 µM | [9] > 100 µM | [10] > 100 µM | [11] > 100 µM | [12] > 100 µM | [13] > 100 µM | [14] > 100 µM | [15] > 100 µM | [16] > 100 µM

C[N+]1(C)CCC(C#N)(c2ccccc2)CC1
inactive: [20] > 100 µM | [1] > 100 µM | [17] > 100 µM | [2] > 100 µM | [3] > 100 µM | [4] > 100 µM | [5] > 100 µM | [6] > 100 µM | [7] > 100 µM | [8] > 100 µM | [9] > 100 µM | [10] > 100 µM | [11] > 100 µM | [13] > 100 µM | [18] > 100 µM | [14] > 100 µM | [16] > 100 µM

O=C(NCCC1CN(C(=O)OCc2ccccc2)c2ccccc21)OCc1ccccc1 (stereo not drawn)
inactive: [1] > 100 µM | [17] 60.4 µM | [3] > 100 µM | [4] > 100 µM | [5] > 100 µM | [6] > 100 µM | [7] > 100 µM | [8] > 100 µM | [9] 71.9 µM | [10] > 100 µM | [11] > 100 µM | [13] 85.3 µM | [18] > 100 µM | [14] 64.6 µM | [19] > 100 µM | [16] > 100 µM

CCN(CC)c1ccc(/N=N/c2ccc(-c3nc4cccnc4s3)cc2)cc1
inactive: [1] > 100 µM | [2] > 100 µM | [3] > 100 µM | [4] > 100 µM | [5] > 100 µM | [6] > 100 µM | [7] > 100 µM | [8] > 100 µM | [9] > 100 µM | [10] 57.5 µM | [11] > 100 µM | [12] > 100 µM | [13] 88.7 µM | [14] > 100 µM | [15] > 100 µM | [16] 43.3 µM

O=c1nc2ccc3sc4ccccc4c(=O)c3n2c(=O)[nH]1
inactive: [17] > 100 µM | [2] 83.4 µM | [3] > 100 µM | [4] > 100 µM | [5] > 100 µM | [6] > 100 µM | [7] > 100 µM | [8] > 100 µM | [9] > 100 µM | [10] 98.2 µM | [11] > 100 µM | [12] > 100 µM | [13] > 100 µM | [18] > 100 µM | [14] 11.7 µM | [19] > 100 µM | [15] > 100 µM | [16] > 100 µM
